Measurements taken from PubChem BioAssay (NCI).
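Cultured in 96-well plates, cells were exposed to test compound for 48 hours across five concentrations. The concentration for 50% growth inhibition is given as GI50. The concentration for full growth arrest is given as TGI.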 Where a SMILES comes first, the peptide text is derived from it.

Experiments:
Assay in all cases: growth of human tumour cells (NCI), 48 h
[1] = tested on: MDA-MB-435
[2] = tested on: SK-MEL-28 melanoma
[3] = tested on: SR leukemia
[4] = tested on: HCT-15 colon
[5] = tested on: LOX IMVI melanoma
[6] = tested on: SK-OV-3 ovarian
[7] = tested on: HT29 colon
[8] = tested on: HOP-62 NSCLC
[9] = tested on: RPMI-8226 leukemia
[10] = tested on: SNB-75 CNS

Structure (SMILES) | TGI [1] [µM] | TGI [2] [µM] | TGI [3] [µM] | TGI [4] [µM] | TGI [5] [µM] | TGI [6] [µM] | TGI [7] [µM] | TGI [8] [µM] | TGI [9] [µM] | TGI [10] [µM] | GI50 [1] [µM] | GI50 [3] [µM] | GI50 [4] [µM] | GI50 [10] [µM] | GI50 [5] [µM] | GI50 [6] [µM] | GI50 [7] [µM] | GI50 [8] [µM] | GI50 [9] [µM]
CCC(C)C(NC(=O)C1CCCN1)C(=O)NC(C(=O)NCC(=O)NC(CC(N)=O)C(=O)NC(CC(C)C)C(=O)NC(CC(C)C)C(=O)NC(CCCCN)C(N)=O)C(C)C (stereo unspecified) (H-PIVGNLLK-NH2; configuration not given here) | > 75 | > 75 | > 75 | > 75 | > 75 | > 75 | > 75 | > 75 | > 75 | – | – | – | – | – | – | – | – | – | –
Nc1cc2ncnc(Nc3cccc(Br)c3)c2cn1 | > 100 | > 100 | > 100 | > 100 | > 100 | 74.4 | > 100 | > 100 | > 100 | > 100 | – | – | – | – | – | – | – | – | –
O=C1c2ccccc2C2(c3ccc(Cl)cc3)N[C@@H]3CCCC[C@@H]3N12 (stereo partly specified) | > 100 | > 100 | > 100 | > 100 | > 100 | > 100 | – | > 100 | > 100 | > 100 | – | – | – | – | – | – | – | – | –
CCCCN(CCCC)C1=Nc2ccccc2-n2c(nnc2C(=O)OCC)C1 | > 100 | > 100 | 56.3 | – | > 100 | > 100 | > 100 | > 100 | > 100 | > 100 | – | – | – | – | – | – | – | – | –
CC(=O)OCC1(CNc2nc(N)ncc2C#N)CC(CCc2ccccc2)C1 (stereo unspecified) | > 100 | > 100 | > 100 | > 100 | > 100 | – | > 100 | > 100 | – | > 100 | – | – | – | – | – | – | – | – | –
CN1C(=O)C(CCO)(C(C)(C)C)c2ccccc21 (stereo unspecified) | > 100 | > 100 | > 100 | > 100 | > 100 | > 100 | – | > 100 | > 100 | > 100 | – | – | – | – | – | – | – | – | –
COc1ccc(-c2cc(-c3ccc(OC)c(OC)c3)nc(SCCCC(=O)NO)n2)cc1 | 4.15 | – | 15.5 | 3.59 | 1.06 | 4.93 | > 100 | 6.47 | 6.21 | 5.6 | 1.27 | 0.552 | 0.553 | 1.34 | 0.243 | 1.45 | 1.87 | 1.47 | 0.752
O=[N+]([O-])c1cccc([N+](=O)[O-])c1Cl | 35.3 | 42 | > 100 | 31.6 | 6.88 | – | 45.1 | > 100 | > 100 | 67.5 | – | – | – | – | – | – | – | – | –
c1cc2c3c(c1)[C@@H]1O[C@@H]1c1cccc(c1-3)[C@@H]1O[C@H]21 | 32.5 | 31.3 | > 100 | 47.2 | 10.7 | > 100 | 50.1 | > 100 | – | 70.1 | – | – | – | – | – | – | – | – | –
COc1ccc(/C=N/N=C(\N)NO)c(OC)c1OC | > 100 | > 100 | 74.5 | > 100 | > 100 | > 100 | > 100 | > 100 | > 100 | – | – | – | – | – | – | – | – | – | –
COC(C/C=C\C=C\CC/C=C/CC(C)/C=C/C(=C\C(=O)O)CC(=O)O)/C(C)=C\C=C(/C)C(=O)O (stereo unspecified) | > 100 | > 100 | > 100 | > 100 | – | > 100 | > 100 | > 100 | > 100 | > 100 | – | – | – | – | – | – | – | – | –
O=c1[nH]nc(N/N=C\c2ccc(Cl)cc2)c2ccccc12 | 32.4 | 56.9 | 58.2 | 34.9 | – | 34.6 | > 100 | – | > 100 | 47.6 | – | – | – | – | – | – | – | – | –
Cc1sc2nc3n(sc4nc5sc(C)c(C)c5c(=O)n43)c(=O)c2c1C | > 100 | > 100 | > 100 | > 100 | > 100 | > 100 | > 100 | – | > 100 | 43.4 | – | – | – | – | – | – | – | – | –
O=C1NC(=S)N/C1=C\c1ccc(Sc2ccccc2C(=O)O)s1 | > 100 | > 100 | > 100 | > 100 | > 100 | – | > 100 | > 100 | > 100 | > 100 | – | – | – | – | – | – | – | – | –
Cc1cn(C2CC(SCCO)C(CO)O2)c(=O)[nH]c1=O (stereo unspecified) | > 100 | > 100 | > 100 | > 100 | – | > 100 | > 100 | > 100 | > 100 | > 100 | – | – | – | – | – | – | – | – | –
CCCCNC(=S)Nc1nc(C(=O)NNC(=S)NCc2ccccc2)cs1 | > 100 | – | 27.5 | > 100 | > 100 | > 100 | > 100 | > 100 | > 100 | – | – | – | – | – | – | – | – | – | –
